# Experimental data reported in the supplement of paper PMC10307832.
# Legend:
# Assay in all cases: relative viability (nuclei count vs DMSO), 5 days (fraction); higher = more cells survive
# [1] = compound: C[C@@H](C(=O)N[C@@H](C1CCCCC1)C(=O)N2CCC[C@H]2C(=O)N[C@@H]3[C@@H](CC4=CC=CC=C34)OCC#CC#CCO[C@@H]5CC6=CC=CC=C6[C@@H]5NC(=O)[C@@H]7CCCN7C(=O)[C@H](C8CCCCC8)NC(=O)[C@H](C)NC)NC [AZD5582] + Cc1nc(Nc2ncc(C(=O)Nc3c(C)cccc3Cl)s2)cc(N2CCN(CCO)CC2)n1 [Dasatinib] (partner 0.075 µM)
# How it was run: (§1)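 Medians of duplicate plates are given as relative viability. That measure is the nuclei count in treated wells divided by the count in vehicle wells. Counts were taken on 4× images of lung cancer cell lines in 1536-well plates, 5 days after pin-tool dosing the day after seeding with one drug alone or a fixed anchor-drug dose plus five library-drug doses (not always all listed) in √10 steps.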
# [2] = compound: Cn1nnc2c(C(N)=O)ncn2c1=O [Temozolomide] + COc1cccc2cc(-c3nc([C@H]4CC[C@H](C(=O)O)CC4)n4ncnc(N)c34)[nH]c12 [OSI-027] (partner 0.5 µM)
# How it was run: as §1
# [3] = compound: Cn1nnc2c(C(N)=O)ncn2c1=O [Temozolomide] + Cc1nc(NC(=O)N2CCC[C@H]2C(N)=O)sc1-c1ccnc(C(C)(C)C(F)(F)F)c1 [Alpelisib] (partner 2 µM)
# How it was run: as §1
# [4] = compound: Cn1nnc2c(C(N)=O)ncn2c1=O [Temozolomide] + O=C(CCCCCCC(=O)Nc1ccccc1)NO [Vorinostat] (partner 1 µM)
# How it was run: as §1
Cell Line,relative viability ([1]; first compound 0.001581 µM),relative viability ([1]; first compound 0.005 µM),relative viability ([1]; first compound 0.01581 µM),relative viability ([1]; first compound 0.05 µM),relative viability ([2]; first compound 0.2 µM),relative viability ([2]; first compound 0.6325 µM),relative viability ([2]; first compound 2 µM),relative viability ([2]; first compound 6.325 µM),relative viability ([2]; first compound 20 µM),relative viability ([3]; first compound 0.2 µM),relative viability ([3]; first compound 0.6325 µM),relative viability ([3]; first compound 2 µM),relative viability ([3]; first compound 6.325 µM),relative viability ([3]; first compound 20 µM),relative viability ([4]; first compound 0.2 µM),relative viability ([4]; first compound 0.6325 µM),relative viability ([4]; first compound 2 µM),relative viability ([4]; first compound 6.325 µM),relative viability ([4]; first compound 20 µM)
EMC-BAC-2,0.332,0.327,0.31,0.241,0.454,0.355,0.369,0.396,0.419,0.743,0.731,0.743,0.75,0.691,0.831,0.628,0.454,0.398,0.437
NCI-H1651,0.428,0.478,,0.552,0.724,0.727,0.657,0.636,0.636,0.966,0.941,1.03,0.93,0.92,0.582,0.49,0.628,0.499,0.613
HCC-827,0.342,0.218,0.289,0.411,0.45,0.756,0.8,0.73,0.133,0.995,0.978,1.02,0.995,0.136,0.637,0.785,0.817,0.876,0.169
SW 1573,0.56,0.732,0.573,0.566,0.672,0.66,0.734,0.608,0.721,0.714,0.783,0.809,0.69,0.8,0.794,1.04,1.08,0.803,0.633
NCI-H460,0.439,0.578,0.429,0.362,0.853,0.688,0.761,0.682,0.656,0.58,0.526,0.51,0.479,0.461,0.67,0.694,0.706,0.709,0.685
NCI-H1648,,,,,,0.23,0.262,0.235,0.274,,,,,,,0.436,0.624,0.457,0.375
NCI-H647,0.175,0.187,0.119,0.207,0.676,0.661,0.776,0.431,0.185,1.43,1.21,1.16,0.866,0.238,0.886,0.705,0.494,0.304,0.153
NCI-H322M,0.314,0.285,,0.269,,0.525,0.569,0.54,0.433,,0.81,0.803,0.747,0.609,0.93,0.931,1.05,0.899,0.761
NCI-H1666,0.656,0.814,0.757,0.846,0.81,0.822,0.789,0.65,0.672,0.925,0.951,0.808,0.586,0.499,1.07,1,0.94,0.794,0.868
NCI-H2342,0.316,0.315,0.27,0.319,0.544,0.665,0.618,0.59,0.678,,,,,,0.673,0.833,0.9,0.742,0.811
ChaGo-K-1,0.579,0.669,0.596,0.488,0.623,0.543,0.685,0.508,0.554,,,,,,0.85,0.724,0.719,0.738,0.733
CAL-12T,0.261,0.333,0.363,0.349,0.728,0.712,0.914,0.608,0.657,1.11,1.22,1.14,1.06,1.18,0.889,0.881,0.885,0.781,0.628
LOU-NH91,0.553,0.565,0.468,0.657,0.494,0.729,0.781,0.756,0.493,0.57,0.726,0.789,0.702,0.47,0.799,0.934,1.03,0.923,0.797
NCI-H1975,0.322,0.447,0.428,0.408,0.888,0.683,0.852,0.731,0.804,0.711,0.712,0.718,0.642,0.676,0.854,0.76,0.711,0.701,0.719
LC-2-ad,0.629,0.774,0.461,0.531,0.782,0.917,0.926,0.825,0.737,0.896,0.842,0.942,0.818,0.642,0.824,0.717,0.726,0.733,0.668
ABC-1,0.344,0.611,,0.632,0.554,0.513,0.564,0.517,0.585,1.19,1.17,1.15,1.1,0.829,1.48,0.771,0.907,1.21,1.08
NCI-H2405,0.199,0.24,0.155,0.226,0.569,0.618,0.646,0.619,0.654,0.405,0.819,0.891,0.734,0.738,1.25,1.08,1.05,0.99,0.995
IA-LM,,,,,,,,,,0.956,0.716,0.811,0.716,0.711,0.842,1.05,0.895,0.952,1.03
